Reference: patent US12036193B2, “Synergistic bioactive compositions for treating neurological disorders” (priority 2019, dated 2024)

Columns and labels:
[1] = Rat feed consumption in global ischemia reperfusion induced brain injury study; conditions: Standard 9.3 mg/kg, Agmatine sulphate 310 mg/kg, Bio-optimized PEA 372 mg/kg, combination 310+372 mg/kg, p.o. daily
Interleukin - 6 = assay: Rat Interleukin-6 level after global cerebral ischemia/reperfusion; type: in vivo, Wistar rats; conditions: mean ± SEM, n=6; oral 10 days, 30 min ischemia on 7th day + 72 hrs reperfusion; Standard 9.3, Agmatine sulphate 310, Bio-optimized PEA 372, combination 310+372 mg/kg; I/R control 121.83 ± 1.65
[2] = Rat body weight in global ischemia reperfusion induced brain injury study; conditions: n=6, Standard 9.3 mg/kg, Agmatine sulphate 310 mg/kg, Bio-optimized PEA 372 mg/kg, combination 310+372 mg/kg, p.o. daily
TNF alpha = assay: Rat TNF alpha level after global cerebral ischemia/reperfusion; type: in vivo, Wistar rats; conditions: mean ± SEM, n=6; oral 10 days, 30 min ischemia on 7th day + 72 hrs reperfusion; Standard 9.3, Agmatine sulphate 310, Bio-optimized PEA 372, combination 310+372 mg/kg; I/R control 172.17 ± 6.35

N=C(N)NCCCCN.O=S(=O)(O)O [Agmatine sulphate, 1-(4-Aminobutyl)guanidine sulfate]
Feed Consumption, Week 01 [1]: 99.57 ± 1.19 gm
Interleukin - 6 Levels (Interleukin - 6): 91.39 ± 0.92 pg/mL
Body Weight, Week 01 ([2]; Week 01, mean ± SEM): 224.33 ± 0.42 gm
Body Weight, Basal ([2]; basal, mean ± SEM): 215.00 ± 0.73 gm
TNF alpha Level (TNF alpha): 142.00 ± 1.53 pg/mL
